The source made the active and inactive calls.
Assays:
[1] = molecular target: Latent membrane protein 1 (Human herpesvirus 4 (strain B95-8), UniProt P03230); assay: LMP1 TES1 pathway selectivity over dsRED control – imaging, HEK293T, dual-color eGFP/dsRED, cherry-picks, selectivity assay for LMP1 NF-kB inhibitor project, dose response (AID 588398); assay type: functional, cell-based
Interleukin-8 = Interleukin-8 (Homo sapiens, UniProt P10145); assay: Dose Response confirmation of uHTS small molecule hits for cystic fibrosis induced NFkb Inhibitors in a PAF-induced IL8 counterscreen.; assay type: functional; details: read-out: IC50_Mean
HEK293 [2] = assay: EBV LMP1 TES2 canonical NF-kB signalling blockers – cell-based, HEK293, luciferase, cherry-pick, dose response (AID 588343); assay type: functional; details: Homo sapiens
Cytochrome P450 1A2 = molecular target: T1, Cytochrome P450 1A2 (Homo sapiens, UniProt P05177);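 note: PubChem cytochrome P450 panel assay, CYP1A2 panel member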
T1 sequence (P05177 whole entry): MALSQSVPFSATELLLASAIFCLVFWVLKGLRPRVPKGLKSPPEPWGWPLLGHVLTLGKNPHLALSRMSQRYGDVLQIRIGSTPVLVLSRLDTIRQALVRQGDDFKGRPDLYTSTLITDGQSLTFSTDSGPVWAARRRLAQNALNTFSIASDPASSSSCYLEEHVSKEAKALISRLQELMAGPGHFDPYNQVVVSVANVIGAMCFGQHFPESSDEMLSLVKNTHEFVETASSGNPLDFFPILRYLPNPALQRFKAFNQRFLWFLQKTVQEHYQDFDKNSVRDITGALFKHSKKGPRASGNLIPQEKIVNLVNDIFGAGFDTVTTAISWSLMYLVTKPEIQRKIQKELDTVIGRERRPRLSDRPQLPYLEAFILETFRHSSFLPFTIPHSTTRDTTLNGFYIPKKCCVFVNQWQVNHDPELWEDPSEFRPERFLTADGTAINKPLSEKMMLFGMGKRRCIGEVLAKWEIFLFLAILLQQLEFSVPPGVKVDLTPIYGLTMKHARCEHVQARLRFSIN

Genome polyprotein = Genome polyprotein (dengue virus type 2, UniProt P29990); assay: flavivirus cap methylation enzyme inhibition – biochemical, confirmation dose response, primary screen (AID 588689); assay type: functional
[3] = molecular target: Heat shock protein HSP 90-alpha (Homo sapiens, UniProt P07900); assay type: functional, organism-based
[4] = Luminescence Cell-Based Dose Retest to Confirm Inhibitors of Cancer Stem Cells. [Related pubchem assays (depositor defined):AID2717, AID2721]; assay type: functional; details: Homo sapiens
Vero = assay: viability of Vero cells under compound – cytotoxicity control for flavivirus capping enzyme inhibitors (AID 588742); assay type: functional; details: Chlorocebus sabaeus
Cytochrome P450 2C9 = Cytochrome P450 2C9 (Homo sapiens, UniProt P11712)
CHO = CHO cell viability loss, potency – luminescence, cytotoxicity control for TLR9-MyD88 binding inhibitor project, dose response (AID 588339); assay type: functional, cell-based, hamster; details: Cricetulus griseus;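 note: CHO cells stably coexpressing TLR9 and MyD88 fusions from primary screen; compound exposure lasted 48 hours before viability readout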
[5] = molecular target: Lysine-specific demethylase 4C (Homo sapiens, UniProt Q9H3R0); assay: inhibition of JMJD2C H3K9me3 demethylation – biochemical, DELFIA europium, cherry-picked samples, dose response (AID 488835); assay type: functional
Cannabinoid receptor 1 = Cannabinoid receptor 1 (Homo sapiens, UniProt P21554); assay: SAR analysis of antagonists of the Cannabinoid Receptor 1 using an Image-Based Assay. [Related pubchem assays (depositor defined):AID1961, AID1965]; assay type: functional
[6] = molecular target: T2, Sentrin-specific protease 7 (Homo sapiens, UniProt Q9BQF6); assay type: functional;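 note: Luminescence-based dose-response confirmation of ultra-high-throughput screening hits, measuring inhibition of SENP7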
T2 sequence (Q9BQF6 whole entry): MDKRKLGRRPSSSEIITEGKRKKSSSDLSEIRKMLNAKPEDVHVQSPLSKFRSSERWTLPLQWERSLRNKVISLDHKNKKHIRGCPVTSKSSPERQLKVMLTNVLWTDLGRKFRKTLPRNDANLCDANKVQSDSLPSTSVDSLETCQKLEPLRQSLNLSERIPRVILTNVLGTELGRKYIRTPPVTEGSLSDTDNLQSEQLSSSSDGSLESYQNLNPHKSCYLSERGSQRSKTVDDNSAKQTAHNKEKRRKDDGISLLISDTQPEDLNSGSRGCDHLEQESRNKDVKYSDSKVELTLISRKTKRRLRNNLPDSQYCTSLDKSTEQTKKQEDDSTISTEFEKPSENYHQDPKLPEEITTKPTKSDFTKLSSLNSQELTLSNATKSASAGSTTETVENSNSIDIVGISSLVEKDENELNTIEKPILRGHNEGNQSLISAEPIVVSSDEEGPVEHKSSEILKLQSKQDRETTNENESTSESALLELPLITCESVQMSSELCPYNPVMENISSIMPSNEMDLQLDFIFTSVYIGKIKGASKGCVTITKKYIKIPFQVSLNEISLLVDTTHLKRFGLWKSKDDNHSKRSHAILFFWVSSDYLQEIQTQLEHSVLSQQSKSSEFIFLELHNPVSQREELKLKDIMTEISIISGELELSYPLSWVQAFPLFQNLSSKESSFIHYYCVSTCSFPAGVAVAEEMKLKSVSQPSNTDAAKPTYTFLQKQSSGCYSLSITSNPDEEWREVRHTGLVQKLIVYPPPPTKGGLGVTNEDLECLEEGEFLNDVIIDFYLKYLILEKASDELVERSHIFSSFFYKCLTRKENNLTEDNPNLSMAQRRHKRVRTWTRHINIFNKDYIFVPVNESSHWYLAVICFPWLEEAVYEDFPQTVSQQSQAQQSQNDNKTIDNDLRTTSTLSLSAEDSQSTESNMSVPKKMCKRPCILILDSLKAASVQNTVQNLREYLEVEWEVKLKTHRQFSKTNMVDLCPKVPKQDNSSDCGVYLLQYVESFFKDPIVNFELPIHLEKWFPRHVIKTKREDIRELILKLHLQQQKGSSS

[7] = viability loss in HepG2 hepatoma cells – cell-based, ATP luminescence, cherry-pick, activator set 2, cytotoxicity control, dose response (AID 1053143); assay type: functional
[8] = molecular target: T3, G-protein coupled receptor 55 (Homo sapiens, UniProt Q9Y2T6); assay: selective activators of receptor GPR55 – imaging, U2OS cells, beta-arrestin-GFP redistribution, primary screen (AID 1961); assay type: functional
[9] = molecular target: T3, G-protein coupled receptor 55; assay: SAR analysis of selective Agonists of GPR55 using an Image-Based Assay. [Related pubchem assays (depositor defined):AID1961, AID1965]; assay type: functional
[10] = molecular target: T4, Sentrin-specific protease 6 (Homo sapiens, UniProt Q9GZR1); assay type: functional;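 note: Luminescence-based dose-response confirmatory assay of SENP6 inhibition, following up an ultra-high-throughput screen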
T4 sequence (Q9GZR1 whole entry): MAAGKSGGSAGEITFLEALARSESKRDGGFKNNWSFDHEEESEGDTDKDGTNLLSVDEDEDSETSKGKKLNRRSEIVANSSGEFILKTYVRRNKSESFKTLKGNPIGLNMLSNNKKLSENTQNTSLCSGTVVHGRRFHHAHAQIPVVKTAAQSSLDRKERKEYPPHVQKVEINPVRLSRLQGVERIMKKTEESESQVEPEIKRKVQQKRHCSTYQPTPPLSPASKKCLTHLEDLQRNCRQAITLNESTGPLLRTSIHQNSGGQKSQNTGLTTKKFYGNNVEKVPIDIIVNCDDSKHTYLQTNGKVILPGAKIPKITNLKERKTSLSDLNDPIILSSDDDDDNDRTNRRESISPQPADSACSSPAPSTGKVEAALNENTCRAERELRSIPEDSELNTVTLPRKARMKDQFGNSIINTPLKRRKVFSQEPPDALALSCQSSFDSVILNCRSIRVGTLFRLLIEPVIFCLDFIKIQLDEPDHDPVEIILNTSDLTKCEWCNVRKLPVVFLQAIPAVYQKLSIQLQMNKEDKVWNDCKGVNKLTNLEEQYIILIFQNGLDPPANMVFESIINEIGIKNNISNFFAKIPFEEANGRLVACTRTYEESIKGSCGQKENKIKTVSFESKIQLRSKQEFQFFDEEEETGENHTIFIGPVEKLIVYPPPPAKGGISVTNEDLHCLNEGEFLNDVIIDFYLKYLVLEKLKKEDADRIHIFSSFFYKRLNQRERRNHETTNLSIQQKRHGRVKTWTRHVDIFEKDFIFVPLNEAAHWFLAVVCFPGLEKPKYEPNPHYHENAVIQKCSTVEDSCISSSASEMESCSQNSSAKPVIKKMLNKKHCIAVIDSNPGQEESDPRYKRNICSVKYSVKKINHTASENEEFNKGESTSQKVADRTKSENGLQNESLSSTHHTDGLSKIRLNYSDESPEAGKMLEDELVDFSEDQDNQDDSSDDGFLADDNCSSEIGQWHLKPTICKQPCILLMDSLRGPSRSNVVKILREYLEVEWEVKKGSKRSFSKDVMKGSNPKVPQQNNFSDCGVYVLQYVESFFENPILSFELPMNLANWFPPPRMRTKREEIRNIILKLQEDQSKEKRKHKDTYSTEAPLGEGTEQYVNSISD

Cannabinoid receptor 2 [11] = molecular target: T5, Cannabinoid receptor 2 (Homo sapiens, UniProt P34972); assay: SAR analysis of antagonists of the Cannabinoid Receptor 2 using an Image-Based Assay - Set 2. [Related pubchem assays (depositor defined):AID1961, AID1965]; assay type: functional
[12] = molecular target: T6, Sentrin-specific protease 8 (Homo sapiens, UniProt Q96LD8); assay type: functional;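 note: luminescence read-out of SENP8 inhibition, dose-response confirmation following an ultra-high-throughput screen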
T6 sequence (Q96LD8 whole entry): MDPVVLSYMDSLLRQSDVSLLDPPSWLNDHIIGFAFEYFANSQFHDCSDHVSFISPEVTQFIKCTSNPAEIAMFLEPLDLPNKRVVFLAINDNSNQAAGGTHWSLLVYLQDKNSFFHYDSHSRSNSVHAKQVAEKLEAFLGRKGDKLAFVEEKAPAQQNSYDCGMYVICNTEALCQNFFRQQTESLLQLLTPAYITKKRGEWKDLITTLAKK

Cannabinoid receptor 2 [13] = molecular target: T5, Cannabinoid receptor 2; assay: SAR analysis of agonists of the Cannabinoid Receptor 2 using an Image-Based Assay - Set 2. [Related pubchem assays (depositor defined):AID1961, AID1965]; assay type: functional
Caspase-3 = molecular target: T7, Caspase-3 (Homo sapiens, UniProt P42574); assay type: functional;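 note: Dose-response selectivity test against caspase-3 for candidate inhibitors of sentrin-specific proteases (SENPs)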
T7 sequence (P42574 whole entry): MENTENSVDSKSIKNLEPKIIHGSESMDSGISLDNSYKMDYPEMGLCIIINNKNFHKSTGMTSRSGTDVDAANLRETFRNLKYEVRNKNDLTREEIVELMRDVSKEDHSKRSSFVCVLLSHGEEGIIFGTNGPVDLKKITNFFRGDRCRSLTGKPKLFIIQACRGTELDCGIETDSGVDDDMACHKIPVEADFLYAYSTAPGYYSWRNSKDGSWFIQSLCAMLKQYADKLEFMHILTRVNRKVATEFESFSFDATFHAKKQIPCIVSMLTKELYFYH

[14] = Counterscreen for inhibitors of Trypanosoma brucei methionyl tRNA synthetase (MetRS): Luminescence-based cell-based high throughput dose response assay to identify compounds that are cytotoxic to Jurkat human T lymphocyte cells.; assay type: functional
HEK293 [15] = assay: cells; assay type: functional, cell-based; details: Homo sapiens
[16] = molecular target: Nucleotide-binding oligomerization domain-containing protein 2 (Homo sapiens, UniProt Q9HC29); assay: inhibition of NOD2-driven NF-kB reporter – cell-based, luminescence, uHTS, HEK293 (AID 1566); assay type: functional
HEK293 [17] = assay: NOD2 signaling inhibitors in MDP-stimulated cells, cell-based, uHTS, luminescence (AID 2001); assay type: functional; details: Homo sapiens
HEK293 [18] = assay: cells; assay type: functional, cell-based; details: Homo sapiens; remark: listed apart in the source
HEK293 [19] = assay: inhibition of NOD1-driven NF-kB reporter – cell-based, luminescence, uHTS, primary screen (AID 1578); assay type: functional; details: Homo sapiens
HEK293 [20] = assay: cells; assay type: functional, cell-based; details: Homo sapiens; remark: listed apart in the source

T3 sequence (Q9Y2T6 whole entry): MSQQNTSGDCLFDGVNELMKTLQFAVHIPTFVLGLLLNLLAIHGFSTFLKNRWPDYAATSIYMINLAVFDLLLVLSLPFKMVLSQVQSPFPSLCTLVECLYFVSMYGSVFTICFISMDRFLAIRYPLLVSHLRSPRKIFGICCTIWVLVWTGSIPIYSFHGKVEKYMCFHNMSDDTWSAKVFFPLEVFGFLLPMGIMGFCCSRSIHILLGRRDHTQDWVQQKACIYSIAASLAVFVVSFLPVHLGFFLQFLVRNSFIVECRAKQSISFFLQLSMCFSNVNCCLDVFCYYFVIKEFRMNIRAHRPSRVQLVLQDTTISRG
T5 sequence (P34972 whole entry): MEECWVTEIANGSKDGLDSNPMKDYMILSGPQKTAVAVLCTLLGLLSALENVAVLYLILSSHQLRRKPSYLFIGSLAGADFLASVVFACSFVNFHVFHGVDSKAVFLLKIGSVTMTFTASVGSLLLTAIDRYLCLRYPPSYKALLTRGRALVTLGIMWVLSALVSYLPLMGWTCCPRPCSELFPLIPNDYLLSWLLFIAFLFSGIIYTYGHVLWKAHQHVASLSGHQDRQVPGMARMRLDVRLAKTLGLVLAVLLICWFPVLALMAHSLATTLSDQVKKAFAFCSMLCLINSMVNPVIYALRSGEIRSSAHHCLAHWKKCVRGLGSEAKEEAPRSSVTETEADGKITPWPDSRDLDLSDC
Chain of Lysine-specific demethylase 4C (Q9H3R0 whole entry): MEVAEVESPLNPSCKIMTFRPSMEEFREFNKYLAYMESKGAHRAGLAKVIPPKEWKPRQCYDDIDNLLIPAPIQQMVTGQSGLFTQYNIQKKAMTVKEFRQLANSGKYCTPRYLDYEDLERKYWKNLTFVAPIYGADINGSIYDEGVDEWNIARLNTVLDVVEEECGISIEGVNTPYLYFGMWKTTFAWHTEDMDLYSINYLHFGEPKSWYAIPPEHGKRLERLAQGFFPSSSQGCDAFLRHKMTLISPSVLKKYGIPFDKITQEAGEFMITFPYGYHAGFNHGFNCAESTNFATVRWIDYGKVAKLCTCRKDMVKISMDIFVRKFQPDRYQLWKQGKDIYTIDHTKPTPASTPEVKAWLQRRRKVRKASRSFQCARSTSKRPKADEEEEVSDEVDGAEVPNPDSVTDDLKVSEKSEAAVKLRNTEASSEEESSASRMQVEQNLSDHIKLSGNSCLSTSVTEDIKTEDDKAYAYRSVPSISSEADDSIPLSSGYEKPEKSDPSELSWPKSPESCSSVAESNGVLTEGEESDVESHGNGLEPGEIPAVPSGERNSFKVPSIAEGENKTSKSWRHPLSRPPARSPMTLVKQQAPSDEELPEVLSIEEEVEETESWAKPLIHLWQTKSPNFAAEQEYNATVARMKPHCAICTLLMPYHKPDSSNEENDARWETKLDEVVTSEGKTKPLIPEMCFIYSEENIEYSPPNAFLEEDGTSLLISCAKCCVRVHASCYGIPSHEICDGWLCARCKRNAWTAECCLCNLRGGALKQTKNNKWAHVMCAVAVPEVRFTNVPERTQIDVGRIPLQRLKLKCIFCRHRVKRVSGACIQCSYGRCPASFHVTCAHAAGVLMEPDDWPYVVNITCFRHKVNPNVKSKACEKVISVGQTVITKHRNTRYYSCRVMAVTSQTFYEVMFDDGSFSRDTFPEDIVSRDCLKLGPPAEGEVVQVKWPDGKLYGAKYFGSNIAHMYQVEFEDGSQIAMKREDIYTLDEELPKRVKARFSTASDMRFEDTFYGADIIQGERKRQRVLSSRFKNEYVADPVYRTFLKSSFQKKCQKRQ
Chain of Interleukin-8 (P10145 whole entry): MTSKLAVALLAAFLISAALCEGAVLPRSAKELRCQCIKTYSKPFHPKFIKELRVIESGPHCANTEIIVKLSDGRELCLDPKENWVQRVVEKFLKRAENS
Chain of Cannabinoid receptor 1 (P21554 whole entry): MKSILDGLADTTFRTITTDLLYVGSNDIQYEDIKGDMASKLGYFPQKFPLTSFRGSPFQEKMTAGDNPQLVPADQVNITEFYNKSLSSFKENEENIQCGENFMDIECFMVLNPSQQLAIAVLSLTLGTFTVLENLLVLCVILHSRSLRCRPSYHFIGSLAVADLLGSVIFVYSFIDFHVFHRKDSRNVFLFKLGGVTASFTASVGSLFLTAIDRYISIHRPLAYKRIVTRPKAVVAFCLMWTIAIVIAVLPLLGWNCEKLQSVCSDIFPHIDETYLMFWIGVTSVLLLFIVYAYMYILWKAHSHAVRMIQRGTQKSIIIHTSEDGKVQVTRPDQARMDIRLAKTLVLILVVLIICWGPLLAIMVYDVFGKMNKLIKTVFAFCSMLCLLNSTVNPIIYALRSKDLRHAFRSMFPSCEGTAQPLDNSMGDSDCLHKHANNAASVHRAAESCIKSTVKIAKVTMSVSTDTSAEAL
Chain of Genome polyprotein (P29990 2492-3391 limits assumed): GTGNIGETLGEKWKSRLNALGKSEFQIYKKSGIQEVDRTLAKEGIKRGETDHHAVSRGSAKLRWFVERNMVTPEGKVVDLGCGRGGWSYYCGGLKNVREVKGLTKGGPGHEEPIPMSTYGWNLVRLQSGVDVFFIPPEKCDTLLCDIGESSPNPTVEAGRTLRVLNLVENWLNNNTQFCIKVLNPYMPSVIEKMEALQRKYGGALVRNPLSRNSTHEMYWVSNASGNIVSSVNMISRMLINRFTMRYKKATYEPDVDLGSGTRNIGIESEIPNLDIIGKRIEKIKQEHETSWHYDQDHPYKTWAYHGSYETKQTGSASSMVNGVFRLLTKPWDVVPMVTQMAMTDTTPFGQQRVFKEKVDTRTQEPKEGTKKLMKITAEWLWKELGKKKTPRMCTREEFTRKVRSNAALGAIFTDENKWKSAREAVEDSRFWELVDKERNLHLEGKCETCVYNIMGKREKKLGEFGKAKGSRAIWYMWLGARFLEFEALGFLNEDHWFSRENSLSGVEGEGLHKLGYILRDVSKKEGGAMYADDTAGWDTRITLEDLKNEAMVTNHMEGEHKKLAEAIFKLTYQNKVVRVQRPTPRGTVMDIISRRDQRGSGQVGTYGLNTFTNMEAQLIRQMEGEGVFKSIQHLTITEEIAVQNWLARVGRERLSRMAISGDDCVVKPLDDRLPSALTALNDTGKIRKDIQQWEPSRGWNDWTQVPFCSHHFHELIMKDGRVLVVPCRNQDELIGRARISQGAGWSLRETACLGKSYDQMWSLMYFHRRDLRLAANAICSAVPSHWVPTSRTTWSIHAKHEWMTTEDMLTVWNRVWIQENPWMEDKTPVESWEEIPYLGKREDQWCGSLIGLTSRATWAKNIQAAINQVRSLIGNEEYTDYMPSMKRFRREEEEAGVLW
Chain of Nucleotide-binding oligomerization domain-containing protein 2 (Q9HC29 whole entry, the tested form may be a part): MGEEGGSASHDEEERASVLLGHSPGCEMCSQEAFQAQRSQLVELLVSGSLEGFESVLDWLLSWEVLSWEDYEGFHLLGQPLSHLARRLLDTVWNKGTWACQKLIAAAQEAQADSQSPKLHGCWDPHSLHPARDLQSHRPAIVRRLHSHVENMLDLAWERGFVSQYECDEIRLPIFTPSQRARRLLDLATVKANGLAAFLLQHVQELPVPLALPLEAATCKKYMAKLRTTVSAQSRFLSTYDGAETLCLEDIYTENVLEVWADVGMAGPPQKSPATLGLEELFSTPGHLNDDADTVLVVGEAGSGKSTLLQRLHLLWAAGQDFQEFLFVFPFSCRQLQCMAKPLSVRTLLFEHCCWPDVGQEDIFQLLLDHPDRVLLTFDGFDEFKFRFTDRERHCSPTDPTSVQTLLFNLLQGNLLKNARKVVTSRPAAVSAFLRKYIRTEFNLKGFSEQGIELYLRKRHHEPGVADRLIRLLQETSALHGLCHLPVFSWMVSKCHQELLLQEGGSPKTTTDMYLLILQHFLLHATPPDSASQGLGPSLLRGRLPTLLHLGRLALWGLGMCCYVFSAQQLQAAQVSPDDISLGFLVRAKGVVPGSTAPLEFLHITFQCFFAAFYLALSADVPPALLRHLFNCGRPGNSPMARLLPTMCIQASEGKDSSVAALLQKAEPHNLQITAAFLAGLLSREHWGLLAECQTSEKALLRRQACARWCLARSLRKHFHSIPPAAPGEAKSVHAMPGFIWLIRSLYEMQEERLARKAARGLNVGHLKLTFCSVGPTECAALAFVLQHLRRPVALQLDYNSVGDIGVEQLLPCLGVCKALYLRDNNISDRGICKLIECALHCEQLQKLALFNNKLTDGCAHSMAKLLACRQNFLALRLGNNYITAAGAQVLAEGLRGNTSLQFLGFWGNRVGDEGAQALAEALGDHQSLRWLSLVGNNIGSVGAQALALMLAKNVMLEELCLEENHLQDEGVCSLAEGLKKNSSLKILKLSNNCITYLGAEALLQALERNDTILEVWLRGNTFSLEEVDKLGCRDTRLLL
Chain of Cytochrome P450 2C9 (P11712 whole entry, the tested form may be a part): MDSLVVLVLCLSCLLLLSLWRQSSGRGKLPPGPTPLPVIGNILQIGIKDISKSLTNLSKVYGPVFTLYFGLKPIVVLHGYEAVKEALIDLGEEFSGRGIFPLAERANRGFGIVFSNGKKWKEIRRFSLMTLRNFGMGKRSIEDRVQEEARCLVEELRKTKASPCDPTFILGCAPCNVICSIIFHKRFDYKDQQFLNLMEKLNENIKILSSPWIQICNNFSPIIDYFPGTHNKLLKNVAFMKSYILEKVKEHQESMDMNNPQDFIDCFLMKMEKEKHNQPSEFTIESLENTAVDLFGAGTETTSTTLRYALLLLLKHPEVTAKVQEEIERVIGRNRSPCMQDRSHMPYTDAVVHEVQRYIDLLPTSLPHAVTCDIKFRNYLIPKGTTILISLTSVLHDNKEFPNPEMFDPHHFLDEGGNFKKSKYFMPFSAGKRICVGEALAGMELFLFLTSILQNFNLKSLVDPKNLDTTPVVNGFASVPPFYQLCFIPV

In the case of `COc1ccc(-c2csc3ncnc(NCCN4CCOCC4)c23)cc1`, the AC50 [1] is reported as 21.3 µM (active), the IC50 (Interleukin-8) is reported as 50.7 µM (inactive) and the AC50 (HEK293 [2]) is reported as 25.3 µM (active).

With `Cc1ccc(S(=O)(=O)O)cc1.c1cc2c(c(NC3=NCCN3)c1)CCCC2` the AC50 (Cytochrome P450 1A2) was “inactive”.

In the case of `CC1(C)CC[C@]2(C(=O)O)CC[C@]3(C)C(=CC[C@@H]4[C@@]5(C)CC[C@H](O[C@@H]6O[C@H](C(=O)O)[C@@H](O)[C@H](O[C@@H]7OC[C@H](O)[C@H](O)[C@H]7O)[C@H]6O)C(C)(C)[C@@H]5CC[C@]43C)[C@@H]2C1`, the IC50 (Genome polyprotein) is reported as 31 µM (active), the AC50 [3] is reported as 0.649 µM (active) and the AC50 [4] is reported as 2.85 µM (active). For the same compound, the CC50 (Vero) was 36.8 µM (active).

With `COc1cc(C(=O)NCc2ccc(OCCN(C)C)cc2)cc(OC)c1OC` [TRIMETHOBENZAMIDE] the AC50 (Cytochrome P450 1A2) was “inactive” and the AC50 (Cytochrome P450 2C9) was “inactive”.

In the case of `CNC(=S)N/N=C/c1ccc(OCc2ccccc2)c(Br)c1`, the IC50 (CHO) is reported as 7.62 µM (active).

With `c1ccc2cc(CCO[C@H]3CCCCO3)ncc2c1` the AC50 [5] was 11.3 µM (active).

With `CC(C)=CC(=O)Nc1ccc(OCc2ccccc2)cc1` the IC50 (Cannabinoid receptor 1) was > 32 µM (inactive), the IC50 [6] was 8.82 µM (active) and the AC50 [7] was > 52 µM (inactive). For the same compound, the EC50 [8] was 2.34 µM (active), the EC50 [9] was 1.89 µM (active) and the IC50 [10] was 25.9 µM (active). The IC50 (Cannabinoid receptor 2 [11]) was > 32 µM (inactive), the IC50 [12] was 28.6 µM (active) and the EC50 (Cannabinoid receptor 2 [13]) was > 32 µM (inactive). The IC50 (Caspase-3) was 20.8 µM (active).

For `O=C(NCc1cc(Br)cc(Br)c1OC(=O)c1ccccc1[N+](=O)[O-])c1ccccc1`, the IC50 [14] was 50.3 µM (inactive), the IC50 (HEK293 [15]) was > 20 µM (inactive) and the EC50 [16] was 18.6 µM (active). For the same compound, the IC50 (HEK293 [17]) was 5.6 µM (active), the IC50 (HEK293 [18]) was 5.22 µM (active) and the EC50 (HEK293 [19]) was 6.43 µM (active). The IC50 (HEK293 [20]) was > 20 µM (inactive) and the CC50 (Vero) was > 40 µM (active).

Source: ChEMBL document CHEMBL1201862, “PubChem BioAssay data set” (2004)
